Consider one compound from publication PMC9481570, “A small molecule antagonist of SMN disrupts the interaction between SMN and RNAP II” (Nature Communications, 2022).

One assay concerns the target T1, FXR1 (Homo sapiens, UniProt P51114).
T1 construct: FXR1 (aa 2–132); His (N, cleaved yes); made in house; host or cells: E. coli BL21 (DE3) Codon plus RIL
Description: ITC binding to FXR1. An excerpt: (§1) The coding DNA fragments of following Tudor domains were cloned into pET28-MHL vector: SMN (aa 82–147), UHRF1 (aa 126–285), SMNDC1 (aa 53–130), TDRD3 (aa 554–611), SND1 (aa 650–910), TDRD2 (aa 327–420), FXR1 (aa 2–132), PHF1 (aa 28–87), SGF29 (aa 115–293), JMJD2A (aa 897–1101), 53BP1 (aa 1483–1606), SETDB1 (aa 190–410), LBR (aa 1–67), ZGPAT (aa 120–271). The coding regions of chromodomain of CBX7 (aa 8–62), PWWP domain of DNMT3A (aa 275–417), WD40 repeats of WDR5 (aa 24–334) and CW domain of ZCWPW2 (aa 21–78) were also subcloned into pET28-MHL vector to generate N-terminally His-tagged fusion protein. The MBT repeats of L3MBTL1 (aa 200–522) and L3MBTL2 (aa 170–625) were subcloned into pET28GST-LIC vector to generate N-terminally GST-His-tagged fusion protein. All the plasmids were generated by ligase independent cloning (Vazyme Biotech, C112 or ABclonal Technology, RK21020). […] The molecular weight of all protein samples was measured by mass spectrometry.
(§2) For the ITC measurement, the concentrated proteins were diluted into 20 mM Tris-HCl, pH 7.5, 150 mM NaCl (ITC buffer); the lyophilized compounds were dissolved in the same buffer, and the pH value was adjusted by adding 2 M NaOH or 2 M HCl. […] Compound concentrations were calculated from the mass and the volume of the solvent. […]

The target of another assay is T2, JMJD2A (Homo sapiens, UniProt O75164).
T2 construct: JMJD2A (aa 897–1101); His (N, cleaved yes); made in house; host or cells: E. coli BL21 (DE3) Codon plus RIL
T2 sequence (O75164 897-1064): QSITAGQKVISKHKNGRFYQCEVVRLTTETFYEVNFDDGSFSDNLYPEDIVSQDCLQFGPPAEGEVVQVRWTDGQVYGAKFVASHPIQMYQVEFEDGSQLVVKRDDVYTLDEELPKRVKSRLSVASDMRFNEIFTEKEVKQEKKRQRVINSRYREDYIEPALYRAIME
The experiment in a line: ITC binding to JMJD2A. To be noted: Fig. 1c.
Description: as §1, §2

A further assay has as its target T3, WDR5 (WD40) (Homo sapiens, UniProt P61964).
T3 construct: WDR5 (aa 24–334); His (N, cleaved yes); made in house; host or cells: E. coli BL21 (DE3) Codon plus RIL
The experiment in a line: ITC binding to WD40 repeats of WDR5. As to conditions: Fig. 1c.
Description: as §1, §2

A further assay concerns the target T4, TDRD3_Y566W (Homo sapiens, UniProt Q9H7E2, Y566W).
T4 construct: TDRD3 (aa 554–611); His (N, cleaved yes); made in house; host or cells: E. coli BL21 (DE3) Codon plus RIL
The experiment in a line: ITC binding to TDRD3 mutant Y566W. To be noted: Supplementary Fig. 11b, iTC-200; read-out: Kd, ITC binding curve, TDRD3_Y566W.
Description: as §1, §2

A further assay has as its target T5, SMN (Homo sapiens, UniProt Q16637).
T5 construct: endogenous in cells; host or cells: U2OS
The experiment in a line: Biotin-Cmpd 1 pulldown from U2OS cell lysates and western blotting, SMN. To be noted: U2OS cell lysate, 200 μM biotin-free competitor, 20 μM biotin-Cmpd 1. It counts as binding. The method, then: U2OS cells were lysed in RIPA buffer (140 mM NaCl, 10 mM Tris-HCl, pH 7.6, 1% Triton, 0.1% sodium deoxycholate, 1 mM EDTA) containing protease inhibitors (Roche, 05892791001). The cell lysate was incubated with 20 μM biotin-Cmpd 1 overnight at 4 °C, then 30 μL streptavidin beads (Thermo Fisher, 20353) was added and incubated at 4 °C for 1 h. The beads were then washed with RIPA buffer for 3 times, 10 min/time and loading buffer was added and boiled for 5 min for elution. The eluted samples were separated by SDS-PAGE for western blotting (SMN monoclonal antibody, BD Transduction Laboratories, 610646, clone No. 8, dilution of 1:1000; TDRD3 rabbit monoclonal antibody, Cell signaling, 5492, clone No. 5492, dilution of 1:1000; SND1 polyclonal antibody, Bethyl, A302-883A, dilution of 1:2000; RFP polyclonal antibody, Abcam, ab62341, dilution of 1:1000; GFP monoclonal antibody, Santa Cruz Biotechnology, sc-9996, dilution of 1:1000; Streptavidin-Horseradish Peroxidase (HRP), Invitrogen, SA10001, dilution of 1:5000) as previously described[52],[53]. For the competition analysis, 200 μM biotin-free compound 1 or compound 15 was added at the same time when the biotin-Cmpd 1 was incubated with the cell lysates.

For the next assay, the target named is TDRD3 (Homo sapiens, UniProt Q9H7E2). Description: ITC binding to TDRD3. On the set-up: TDRD3 (aa 554–611); His (N, cleaved yes); made in house; host or cells: E. coli BL21 (DE3) Codon plus RIL. As to conditions: Supplementary Figs. 2 and 11b (VP-ITC); read-out: Kd, ITC binding curve, TDRD3.
Sequence of TDRD3 (Q9H7E2 554-611): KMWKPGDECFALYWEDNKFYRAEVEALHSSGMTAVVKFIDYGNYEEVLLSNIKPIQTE
Description: as §1, §2

SMILES strings stand for the structures. Where only a bound is given, the exact number is not on record here.

T1 sequence (P51114 2-132): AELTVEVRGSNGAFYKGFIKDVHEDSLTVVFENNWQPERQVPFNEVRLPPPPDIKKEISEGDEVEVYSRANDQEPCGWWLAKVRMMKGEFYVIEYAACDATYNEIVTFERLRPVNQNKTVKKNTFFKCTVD
T5 sequence (Q16637 whole entry): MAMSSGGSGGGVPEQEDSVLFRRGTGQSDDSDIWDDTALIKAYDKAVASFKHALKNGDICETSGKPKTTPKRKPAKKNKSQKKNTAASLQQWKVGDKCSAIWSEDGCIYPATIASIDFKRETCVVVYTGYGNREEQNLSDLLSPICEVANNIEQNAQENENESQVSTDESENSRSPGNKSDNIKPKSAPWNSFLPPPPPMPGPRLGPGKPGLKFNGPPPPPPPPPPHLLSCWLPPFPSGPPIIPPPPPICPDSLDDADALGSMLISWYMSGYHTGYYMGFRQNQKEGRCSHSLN
T4 sequence (Q9H7E2 554-611 Y566W): as the sequence (Q9H7E2 554-611) above, with Y13W counted along it

For the compound `Cn1c2c(c(=N)c3c1CCC3)CCC2` [Compound 1, 4-methyl-2,3,4,5,6,7-hexahydrodicyclopenta[b,e]pyridin-8(1H)-imine], the dissociation constant Kd is more than 100 µM on FXR1 (ITC, Fig. 1c); more than 244 µM at JMJD2A; more than 244 µM on WDR5 (WD40); 3.8 ± 0.4 µM on TDRD3_Y566W; 11 ± 1 µM on TDRD3. On FXR1 (Supplementary Fig. 2e), the “ITC binding curve, FXR1 (in words)” value is on record as “Weak binding”. In addition, at SMN, the “competition of the pulldown of SMN by biotin-Cmpd 1” value was “competed out”.
